BindingDB's records for patent US20250313563 (The Broad Institute, 2025)
“And” between values parts separate entries of the source, which are not always exact repeats. Identical values can stand only once.

Experiments:
[1] = molecular target: Glycogen synthase kinase-3 beta (Homo sapiens, UniProt P49841); assay: TR-FRET Assay
Summary of the method: (§1)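 Signal is measured as TR-FRET between a terbium anti-phospho-Ser641 antibody and streptavidin-d2, added after an EDTA quench. Compounds are preincubated 30 min in assay buffer.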

[2] = molecular target: Glycogen synthase kinase-3 alpha (Homo sapiens, UniProt P49840); assay: TR-FRET Assay
Chain of Glycogen synthase kinase-3 alpha (P49840 whole entry): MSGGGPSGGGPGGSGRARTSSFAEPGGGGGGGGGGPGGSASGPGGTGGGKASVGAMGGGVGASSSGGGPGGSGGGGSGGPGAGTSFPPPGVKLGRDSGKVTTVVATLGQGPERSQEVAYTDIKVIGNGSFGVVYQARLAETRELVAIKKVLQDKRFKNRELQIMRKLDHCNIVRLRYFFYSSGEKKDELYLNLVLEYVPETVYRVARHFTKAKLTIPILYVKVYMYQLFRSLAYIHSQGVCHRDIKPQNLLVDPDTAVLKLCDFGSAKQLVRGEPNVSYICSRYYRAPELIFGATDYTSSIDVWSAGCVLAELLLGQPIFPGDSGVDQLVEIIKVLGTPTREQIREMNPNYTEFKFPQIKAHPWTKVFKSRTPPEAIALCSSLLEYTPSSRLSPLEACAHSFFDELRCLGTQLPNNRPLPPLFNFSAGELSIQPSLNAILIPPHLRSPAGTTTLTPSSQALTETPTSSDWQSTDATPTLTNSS
Summary of the method: as §1

Chain of Glycogen synthase kinase-3 beta (P49841 whole entry): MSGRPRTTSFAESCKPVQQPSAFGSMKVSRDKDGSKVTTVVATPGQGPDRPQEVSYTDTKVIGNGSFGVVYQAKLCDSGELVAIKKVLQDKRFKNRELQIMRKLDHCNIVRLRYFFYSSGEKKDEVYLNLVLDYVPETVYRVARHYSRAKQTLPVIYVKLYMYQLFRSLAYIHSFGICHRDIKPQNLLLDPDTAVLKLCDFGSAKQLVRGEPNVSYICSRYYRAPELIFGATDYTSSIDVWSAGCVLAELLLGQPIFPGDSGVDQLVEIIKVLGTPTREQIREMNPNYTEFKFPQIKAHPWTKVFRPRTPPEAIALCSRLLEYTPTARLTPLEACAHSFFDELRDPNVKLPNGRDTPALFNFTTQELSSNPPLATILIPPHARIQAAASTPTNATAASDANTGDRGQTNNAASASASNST

| SMILES | IC50 [1] | IC50 [2] |
| --- | --- | --- |
| CC[C@@H]1C[C@]2(CO1)C1=C(N=NC1)NC1=C2C(=O)CC(C)(C)C1 [US20250313563, Compound 913213] | 1000 to 5000 nM | 100 to 1000 nM |
| CC[C@H]1C[C@]2(CO1)C1=C(N=NC1)NC1=C2C(=O)CC(C)(C)C1 [US20250313563, Compound 913214] | 1000 to 5000 nM | 100 to 1000 nM |
| CC[C@@H]1C[C@@]2(CO1)C1=C(N=NC1)NC1=C2C(=O)CC(C)(C)C1 [US20250313563, Compound 913215] | 1000 to 5000 nM | 100 to 1000 nM |
| CC[C@H]1C[C@@]2(CO1)C1=C(N=NC1)NC1=C2C(=O)CC(C)(C)C1 [US20250313563, Compound 913216] | 100 to 1000 nM | 100 to 1000 nM |
| CC1(C)CC(=O)C2=C(C1)NC1=C(CN=N1)C21CCCc2ccccc21 (stereo not drawn) [US20250313563, Compound 913219] | 100 to 1000 nM | < 100 nM |
| CC[C@]1(c2cccc(-c3cc(C)nc(C)c3)c2)C2=CN=NC2NC2=C1C(=O)CC(C)(C)C2 (stereo partly drawn) [US20250313563, Compound 913222] | 100 to 1000 nM | < 100 nM |
| CC[C@@]1(c2cccc(-c3cc(C)nc(C)c3)c2)C2=CN=NC2NC2=C1C(=O)CC(C)(C)C2 (stereo partly drawn) [US20250313563, Compound 913223] | > 5000 nM | > 5000 nM |
| CCC1(c2cccc(Br)c2)C2=CN=NC2NC2=C1C(=O)NC(C)C2 (stereo not drawn) [US20250313563, Compound 913225] | 1000 to 5000 nM | 100 to 1000 nM |
| CC1(C)CC(=O)C2=C(C1)NC1=C(CN=N1)C21CCN(S(=O)(=O)c2ccc3c(c2)CCO3)CC1 [US20250313563, Compound 913251] | < 100 nM | < 100 nM |
| CCC1(c2cccc(N(C)c3ccc(OC)nc3)c2)C2=CN=NC2NC2=C1C(=O)CC(C)(C)C2 (stereo not drawn) [US20250313563, Compound 913252] | 100 to 1000 nM | 100 to 1000 nM |
| CCC1(c2cccc(NS(C)(=O)=O)c2)C2=CN=NC2NC2=C1C(=O)CC(C)(C)C2 (stereo not drawn) [US20250313563, Compound 913253] | < 100 nM | < 100 nM |
| CCC1(c2cccc(N(C)c3ccnc(C(F)(F)F)c3)c2)C2=CN=NC2NC2=C1C(=O)CC(C)(C)C2 (stereo not drawn) [US20250313563, Compound 913254] | < 100 nM | < 100 nM |
| CCC1(c2cccc(N(C)c3cccc(C)n3)c2)C2=CN=NC2NC2=C1C(=O)CC(C)(C)C2 (stereo not drawn) [US20250313563, Compound 913255] | 100 to 1000 nM | < 100 nM |
| CCC1(c2cccc(N(C)c3cc(C)nc(C)c3)c2)C2=CN=NC2NC2=C1C(=O)CC(C)(C)C2 (stereo not drawn) [US20250313563, Compound 913256] | > 5000 nM | 1000 to 5000 nM |
| CCC1(c2cccc(S(=O)(=O)CC3CC3)c2)C2=CN=NC2NC2=C1C(=O)CC(C)(C)C2 (stereo not drawn) [US20250313563, Compound 913257] | < 100 nM | < 100 nM |
| CCC1(c2cccc(S(=O)(=O)Cc3ccccc3)c2)C2=CN=NC2NC2=C1C(=O)CC(C)(C)C2 (stereo not drawn) [US20250313563, Compound 913258] | < 100 nM | < 100 nM |
| CC1(C)CC(=O)C2=C(C1)NC1=C(CN=N1)C21CN(S(=O)(=O)C2CC2)C1 [US20250313563, Compound 913259] | < 100 nM | < 100 nM |
| Cn1ccc(S(=O)(=O)N2CC3(C2)C2=C(N=NC2)NC2=C3C(=O)CC(C)(C)C2)n1 [US20250313563, Compound 913260] | < 100 nM | < 100 nM |
| COc1ccccc1S(=O)(=O)N1CC2(C1)C1=C(N=NC1)NC1=C2C(=O)CC(C)(C)C1 [US20250313563, Compound 913261] | < 100 nM | < 100 nM |
| CC1(C)CC(=O)C2=C(C1)NC1=C(CN=N1)C21CN(S(=O)(=O)c2ccccn2)C1 [US20250313563, Compound 913262] | < 100 nM | < 100 nM |
| CC1(C)CC(=O)C2=C(C1)NC1=C(CN=N1)C21CN(S(=O)(=O)c2ccccc2F)C1 [US20250313563, Compound 913263] | 100 to 1000 nM | 100 to 1000 nM |
| CN1CC2(C1)C1=C(N=NC1)NC1=C2C(=O)CC(C)(C)C1 [US20250313563, Compound 913264] | < 100 nM | < 100 nM |
| CC1(C)CC(=O)C2=C(C1)NC1=C(CN=N1)C21CN(S(=O)(=O)c2cccnc2)C1 [US20250313563, Compound 913265] | > 5000 nM | > 5000 nM |
| CCC1(c2cccc(N(c3cccnc3)C3CC3)c2)C2=CN=NC2NC2=C1C(=O)CC(C)(C)C2 (stereo not drawn) [US20250313563, Compound 913274] | < 100 nM | < 100 nM |
| CC[C@@]1(c2cccc(N(C)C(=O)c3cnn(C)c3)c2)C2=CN=NC2NC2=C1C(=O)CC(C)(C)C2 (stereo partly drawn) [US20250313563, Compound 913310] | < 100 nM | < 100 nM |
| CCC1(c2cccc(Nc3ncccn3)c2)C2=CN=NC2NC2=C1C(=O)CC(C)(C)C2 (stereo not drawn) [US20250313563, Compound 913334] | 100 to 1000 nM | < 100 nM |
| CCC1(c2cccc(-c3cc(C)ncc3C)c2)C2=CN=NC2NC2=C1C(=O)CC(C)(C)C2 (stereo not drawn) [US20250313563, Compound 913346] | 100 to 1000 nM | < 100 nM |

| SMILES | IC50 [1] | IC50 [2] |
| --- | --- | --- |
| CCC1(c2cccc(-c3ccnc(C)c3C)c2)C2=CN=NC2NC2=C1C(=O)CC(C)(C)C2 (stereo not drawn) [US20250313563, Compound 913347] | < 100 nM | < 100 nM |
| CCC1(c2cccc(-c3ccnc(C(F)(F)F)c3)c2)C2=CN=NC2NC2=C1C(=O)CC(C)(C)C2 (stereo not drawn) [US20250313563, Compound 913348] | 100 to 1000 nM | < 100 nM |
| CCC1(c2cccc(-c3ccnc(C(F)(F)F)c3)c2)C2=CN=NC2NC2=C1C(=O)CC(C)(C)C2 (stereo not drawn) [US20250313563, Compound 913350] | < 100 nM and 100 to 1000 nM | 100 to 1000 nM and < 100 nM |
| CCC1(c2cccc(-c3ccncc3C)c2)C2=CN=NC2NC2=C1C(=O)CC(C)(C)C2 (stereo not drawn) [US20250313563, Compound 913351] | < 100 nM | < 100 nM |
| CCC1(c2cccc(-c3ccnc(O)c3)c2)C2=CN=NC2NC2=C1C(=O)CC(C)(C)C2 (stereo not drawn) [US20250313563, Compound 913352] | < 100 nM | < 100 nM |
| CCC1(c2cccc(C(F)(F)F)c2)C2=C(N=NC2)NC2=C1C(=O)NCCC2 (stereo not drawn) [US20250313563, Compound 913355] | > 5000 nM | > 5000 nM |
| CC1(C)CC(=O)C2=C(C1)NC1=C(CN=N1)C21CCC(S(C)(=O)=O)CC1 (stereo not drawn) [US20250313563, Compound 913356] | < 100 nM | < 100 nM |
| CCC1(c2cccc(-c3ccnc(C)c3)c2)C2=CN=NC2NC2=C1C(=O)NC(C)C2 (stereo not drawn) [US20250313563, Compound 913357] | 1000 to 5000 nM | 100 to 1000 nM |
| CCC1(c2cccc(Br)c2)C2=CN=NC2NC2=C1C(=O)NC(C)(C)C2 (stereo not drawn) [US20250313563, Compound 913439] | 100 to 1000 nM | < 100 nM |
| O=C1CC2(CSC2)CC2=C1C1(CCCC1)C1=CN=NC1N2 (stereo not drawn) [US20250313563, Compound 913441] | 100 to 1000 nM | 100 to 1000 nM |
| CC1(C)CC(=O)C2=C(C1)NC1=C(CN=N1)[C@@]21CO[C@@H](C2CC2)C1 [US20250313563, Compound 913442] | 100 to 1000 nM | 100 to 1000 nM |
| CC[C@]1(c2cccc(C(F)(F)F)c2)C2=C(N=NC2)NC2=C1C(=O)NC2(C)C [US20250313563, Compound 913451] | 100 to 1000 nM | < 100 nM |
| CC[C@@]1(c2cccc(C(F)(F)F)c2)C2=C(N=NC2)NC2=C1C(=O)NC2(C)C [US20250313563, Compound 913452] | > 5000 nM | > 5000 nM |
| CC[C@]1(c2cccc(C(F)(F)F)c2)C2=CN=NC2NC2=C1C(=O)NC1(CCC1)C2 (stereo partly drawn) [US20250313563, Compound 914308] | < 100 nM and 1000 to 5000 nM | < 100 nM and 100 to 1000 nM |
| CC[C@@]1(c2cccc(C(F)(F)F)c2)C2=CN=NC2NC2=C1C(=O)NC1(CCC1)C2 (stereo partly drawn) [US20250313563, Compound 914344] | > 5000 nM | 100 to 1000 nM |
| CCC1(c2cccc(-c3ccnc(C)c3)c2)C2=CN=NC2NC2=C1C(=O)NC(C)(C)C2 (stereo not drawn) [US20250313563, Compound 914930] | 1000 to 5000 nM | < 100 nM |
| CCC1(c2cccc(-c3ccnn3C)c2)C2=CN=NC2NC2=C1C(=O)NC(C)(C)C2 (stereo not drawn) [US20250313563, Compound 914971] | 100 to 1000 nM | < 100 nM |
| CC[C@]1(c2cccc(N(C)c3cnccn3)c2)C2=CN=NC2NC2=C1C(=O)CC(C)(C)C2 (stereo partly drawn) [US20250313563, Compound 915316] | < 100 nM | < 100 nM |
| CC[C@@]1(c2cccc(N(C)c3cnccn3)c2)C2=CN=NC2NC2=C1C(=O)CC(C)(C)C2 (stereo partly drawn) [US20250313563, Compound 915340] | 1000 to 5000 nM | 100 to 1000 nM |
| CC[C@]1(c2cccc(N(C)c3cncnc3)c2)C2=CN=NC2NC2=C1C(=O)CC(C)(C)C2 (stereo partly drawn) [US20250313563, Compound 915400] | < 100 nM | < 100 nM |
| CC[C@@]1(c2cccc(N(C)c3cncnc3)c2)C2=CN=NC2NC2=C1C(=O)NC(C)(C)C2 (stereo partly drawn) [US20250313563, Compound 915401] | 1000 to 5000 nM | 100 to 1000 nM |
| CC[C@@]1(c2cccc(N(C)c3ccnnc3)c2)C2=CN=NC2NC2=C1C(=O)CC(C)(C)C2 (stereo partly drawn) [US20250313563, Compound 915630] | 1000 to 5000 nM | 100 to 1000 nM |
| CC[C@@]1(c2cccc(N3CCCc4ncccc43)c2)C2=CN=NC2NC2=C1C(=O)CC(C)(C)C2 (stereo partly drawn) [US20250313563, Compound 917079] | 1000 to 5000 nM | 100 to 1000 nM |
| CC1(C)CC(=O)C2=C(C1)NC1=C(CN=N1)C21CC(c2ccccc2)C1 (stereo not drawn) [US20250313563, Compound 917081] | < 100 nM | < 100 nM |
| CC[C@]1(c2cccc(N(c3cccnc3)C(C)C)c2)C2=CN=NC2NC2=C1C(=O)CC(C)(C)C2 (stereo partly drawn) [US20250313563, Compound 917086] | < 100 nM and 1000 to 5000 nM | < 100 nM and 100 to 1000 nM |
| CC[C@@]1(c2cccc(N(c3cccnc3)C(C)C)c2)C2=CN=NC2NC2=C1C(=O)CC(C)(C)C2 (stereo partly drawn) [US20250313563, Compound 917087] | 1000 to 5000 nM | 100 to 1000 nM |
| CCN(c1cccnc1)c1cccc([C@@]2(CC)C3=CN=NC3NC3=C2C(=O)CC(C)(C)C3)c1 (stereo partly drawn) [US20250313563, Compound 917088] | 1000 to 5000 nM | 100 to 1000 nM |
